According to patent US12091683B2, “Method for producing platelets, method for producing platelet product, and method for producing blood product” (MEGAKARYON CORPORATION, priority 2017, dated 2024):

Legend:
[1] = tested on: platelets produced from immortalized megakaryocyte cell lines (SeV2-MKCL); test: Bioactivity of platelets produced, MFIs of CD62p and PAC-1 by flow cytometer; type: cell-based, human
Procedure: The bioactivity of platelets obtained in Example 1(2) was measured using a flow cytometer. Specifically, 900 μL of diluent was added to a 1.5-mL microtube, and 100 μL of culture solution after platelet production was added and mixed. Then, 200 μL of obtained solution was poured into a FACS tube, stained by adding the labeled antibody shown below, and the MFIs of CD62p and PAC-1 in platelets were analyzed using the flow cytometer. The same analysis was also performed using the flow cytometer in NC, and then the increase percentage of the MFIs of CD62p and PAC-1 in the respective samples were calculated with reference to the MFIs of CD62p and PAC-1 in NC.
FIGS. 2A and 2B are graphs each showing the increase percentage of MFIs of CD62p and PAC-1. […] In addition, the expression levels of CD62p and PAC-1 were increased in a concentration-dependent manner.
The increase percentages of MFIs of CD62p and PAC-1 were calculated in the same manner as in Example 1(3) except that platelet was produced using a platelet production medium being added with cysteine at a predetermined concentration (1, 5, or 10 mmol/L) instead of glycine. The platelet production medium contains 0.6 to 0.8 mmol/L cysteine. Therefore, the concentration of the cysteine in the platelet production medium after being added with cysteine are about 2 to about 11 mmol/L. As a control, the increase percentage of MFIs of CD62p and PAC-1 was calculated in the same manner except that no cysteine was added.

[2] = tested on: immortalized megakaryocyte cell line from human iPS cells (NIH5); settings: 4.0×10^5 (×4) or 6.0×10^5 cells/mL (×6), 5 days, glycine added, compared with control in high-density culture, FIG. 6A
Procedure: (§1) Immortalized megakaryocyte cell lines were induced in the same manner as in Examples 1(1-1) to (1-6) except that human iPS cells (NIH5 and NIH8) were used instead of the human iPS cells (TKDN SeV2). As to the obtained immortalized megakaryocyte cell line, the number of platelets was counted and the platelet concentration was calculated in the same manner as in Example 1(2) except that the cell dissemination density was set to 4.0×10^5 cells/mL (×4) or 6.0×10^5 cells/mL (×6) and the culture was performed for 5 days. As a control, the platelet concentration was calculated in the same manner except that the cell dissemination density was set to 1.0×10^5 cells/mL (×1), 4.0×10^5 cells/mL (×4), or 6.0×10^5 cells/mL (×6), and the glycine-non-added platelet production medium was used.
(§2) FIGS. 6A and 6B are graphs each showing the platelet concentration. […] In FIGS. 6A and 6B, the horizontal axis indicates the condition of cell dissemination density and glycine concentration, and the vertical axis indicates the platelet concentration.

[3] = tested on: immortalized megakaryocyte cell line from human iPS cells (NIH8); settings: 4.0×10^5 (×4) or 6.0×10^5 cells/mL (×6), 5 days, glycine added, compared with control in high-density culture, FIG. 6B
Procedure: as §1, §2

[4] = tested on: immortalized megakaryocyte cell lines (SeV2-MKCL)
Source text: The forced expression was canceled by performing culturing in a medium not containing DOX. Specifically, the immortalized megakaryocyte cell lines (SeV2-MKCL) obtained using the method (1) were washed twice with PBS (−), and suspended in a following platelet producing medium. The cell dissemination density was set to 4.0×10^5 cells/mL (×4).
The platelet producing medium was obtained by adding the components listed below to a basal medium IMDM (concentration means final concentration).

[5] = tested on: platelets produced from immortalized megakaryocyte cell lines (SeV2-MKCL); settings: 10 mmol/L glycine and 20 U/mL heparin added; dissemination density ×1, ×2, ×3, ×4, ×8; compared with controls; FIG. 3
Procedure: In addition, the deterioration state of platelets obtained was evaluated based on the positive rate of Annexin V. Specifically, in measurement of the Annexin V positive rate in platelets, 100 μL of the culture solution after platelet production was poured into a FACS tube, and the solution was stained by adding the following labeled antibody and protein, diluted to 5 times with an Annexin V binding buffer (BD Biosciences) immediately before flow cytometer analysis, and then subjected to analysis.
1.0 μL anti-CD41a antibody APC label (Bio Legend 303710)
1.0 μL anti-CD42b antibody PE label (Bio Legend 303906)
5 μL Annexin V FITC label (BD Biosciences 556419)

[6] = tested on: immortalized megakaryocyte cell line from iPS cells induced from SeV2-MKCL; settings: high-density culture (×4), compared with control in high-density culture
Source text: iPS cells were induced by introducing c-MYC, OCT3/4, SOX2, and KLF4 into immortalized megakaryocyte cell line (SeV2-MKCL) obtained in Example 1(1-6) by the Sendai virus vector according to the method described in WO 2010/134526. Next, immortalized megakaryocyte cell lines were induced in the same manner as in Examples 1(1-1) to (1-6) except that the induced iPS cells were used instead of the human iPS cells (TKDN SeV2). Further, as to the obtained immortalized megakaryocyte cell line, the number of platelets was counted and the platelet concentration was calculated in the same manner as in Example 1(2). Then, the P/M ratio was calculated based on the megakaryocyte cell density (dissemination density) at the start of production of platelets and the platelet concentration.

[7] = high-density culture (×4), added glycine 5, 10, 20, 40 mmol/L, compared to control without glycine, FIGS. 2A, 2B
[8] = high-density culture, added cysteine 1, 5 or 10 mmol/L, compared to control (NC) without cysteine, FIG. 4

Row | SMILES | expression level of CD62p (increase percentage of MFI) [1, 7] | expression level of PAC-1 (increase percentage of MFI) [1, 7] | platelet concentration [2] | platelet concentration [3] | number of platelets ([4]; 4.0×10^5 cells/mL (×4), added glycine 1, 5, 10, 20 or 40 mmol/L, 6 days, compared with high-density culture using glycine-non-added medium, FIGS. 1A, 1B) | ability of megakaryocyte to produce platelets ([4]; glycine concentration at the start of production of platelets 11 to 31 mmol/L or 11 to 21 mmol/L, high-density culture (×4)) | deterioration of platelet (percentage of Annexin V-positive cells) [5] | number of platelets [5] | ability of megakaryocyte to produce platelets (P/M ratio) ([6]; any glycine concentration, FIG. 5A) | platelet concentration ([6]; FIG. 5B) | expression level of CD62p (increase percentage of MFI) [1, 8] | expression level of PAC-1 (increase percentage of MFI) [1, 8]
1 | NCC(=O)O [glycine] | increased at all glycine concentrations | increased at all glycine concentrations | increased at any dissemination density | increased at any dissemination density | increased at all concentrations | further improved | suppressed | increased | improved | increased at any glycine concentration |  | 
2 | N[C@@H](CS)C(=O)O [cysteine] |  |  |  |  |  |  |  |  |  |  | increased at all cysteine concentrations | increased at all cysteine concentrations
